Assay [1] has as its system Streptococcus pneumoniae. The assay can be described thus: Antibacterial activity against telethromycin-resistant Streptococcus pneumoniae B739 expressing erm gene by NCCLS method. The class given is functional.
The test system of assay [2] is Streptococcus pneumoniae. The assay can be described thus: Antibacterial activity against telethromycin-resistant Streptococcus pneumoniae AB14 expressing erm gene by NCCLS method. The class given is functional.
The subject of assay [3] is Streptococcus pneumoniae. Nature of the assay: Antibacterial activity against telethromycin-resistant Streptococcus pneumoniae 5051 expressing erm gene by NCCLS method. The class given is functional.
In assay [4] the test system is Streptococcus pneumoniae. Nature of the assay: Antibacterial activity against telethromycin-resistant Streptococcus pneumoniae 757 expressing erm gene by NCCLS method. The class given is functional.
A further assay relates to Streptococcus pyogenes. Nature of the assay: Antibacterial activity against Streptococcus pyogenes 19615 by NCCLS method. The class given is functional.
The test system of assay [5] is Streptococcus pneumoniae. Nature of the assay: Antibacterial activity against telethromycin-resistant Streptococcus pneumoniae 3390 expressing erm gene by NCCLS method. The class given is functional.
The subject of assay [6] is Streptococcus pneumoniae. Nature of the assay: Antibacterial activity against telethromycin-resistant Streptococcus pneumoniae 3489 expressing erm gene by NCCLS method. The class given is functional.
Assay [7] relates to Streptococcus pneumoniae. The assay can be described thus: Antibacterial activity against telethromycin-resistant Streptococcus pneumoniae 3271 expressing erm gene by NCCLS method. The class given is functional.
Assay [8] has as its system Streptococcus pneumoniae. The assay can be described thus: Antibacterial activity against Streptococcus pneumoniae 3579 expressing erm gene infected in mouse systemic infection model. The class given is functional, organism-based.
The test system of assay [9] is Streptococcus pneumoniae. Nature of the assay: Antibacterial activity against telethromycin-resistant Streptococcus pneumoniae 2840 expressing erm gene by NCCLS method. The class given is functional.
Assay [10] has as its system Streptococcus pneumoniae. Nature of the assay: Antibacterial activity against Streptococcus pneumoniae 3579 expressing erm gene by NCCLS method. The class given is functional.
The test system of a further assay is Moraxella catarrhalis. The assay can be described thus: Antibacterial activity against Moraxella catarrhalis 8176 by NCCLS method. The class given is functional.
The subject of assay [11] is Streptococcus pneumoniae. The assay can be described thus: Antibacterial activity against Streptococcus pneumoniae 994 expressing mef gene by NCCLS method. The class given is functional.
The subject of assay [12] is Streptococcus pneumoniae. Nature of the assay: Antibacterial activity against telethromycin-resistant Streptococcus pneumoniae 217 expressing erm gene by NCCLS method. The class given is functional.
Assay [13] concerns Streptococcus pneumoniae. The assay can be described thus: Antibacterial activity against telethromycin-resistant Streptococcus pneumoniae 3488 expressing erm gene by NCCLS method. The class given is functional.
A further assay has as its system Haemophilus influenzae. Nature of the assay: Antibacterial activity against Haemophilus influenzae 38 by NCCLS method. The class given is functional.
For assay [14], the system named is Streptococcus pneumoniae. The assay can be described thus: Antibacterial activity against telethromycin-resistant Streptococcus pneumoniae 162 expressing erm gene by NCCLS method. The class given is functional.
For assay [15], the system named is Streptococcus pneumoniae. The assay can be described thus: Antibacterial activity against Streptococcus pneumoniae 6303 by NCCLS method. The class given is functional.
For assay [16], the system named is Streptococcus pneumoniae. The assay can be described thus: Antibacterial activity against telethromycin-resistant Streptococcus pneumoniae 5099 expressing erm gene by NCCLS method. The class given is functional.
Assay [17] concerns Streptococcus pneumoniae. Nature of the assay: Antibacterial activity against Streptococcus pneumoniae 49619 by NCCLS method. The class given is functional.
The subject of assay [18] is Streptococcus pneumoniae. Nature of the assay: Antibacterial activity against Streptococcus pneumoniae by NCCLS method. The class given is functional.

≈ marks a conversion by molar mass, not a printed value. Calls of active or inactive are those of the source. The calls are words filed in the database; no cut-off is given here. Some results are limits rather than exact numbers.

`C=CCN(C)[C@H]1C[C@@H](C)O[C@@H](O[C@@H]2[C@@H](C)[C@H](OC(=O)Cc3ccccn3)[C@@H](C)C(=O)O[C@H](CC)[C@@]3(C)OC(=O)N(CCCCn4cnc(-c5ccco5)c4)[C@@H]3[C@@H](C)C(=O)[C@H](C)C[C@@]2(C)OC)[C@@H]1O`: the MIC with Streptococcus pneumoniae [1] was 2 µg/mL (≈ 2.11 µM); with Streptococcus pneumoniae [2] it was 0.25 µg/mL (≈ 0.264 µM); in the assay on Streptococcus pneumoniae [3], 0.25 µg/mL (≈ 0.264 µM); in the assay on Streptococcus pneumoniae [4], 1 µg/mL (≈ 1.05 µM); in the assay on Streptococcus pyogenes, 0.03 µg/mL (≈ 0.0316 µM); in the assay on Streptococcus pneumoniae [5], 0.5 µg/mL (≈ 0.527 µM). Further, the MIC against Streptococcus pneumoniae [6] worked out at 2 µg/mL (≈ 2.11 µM); against Streptococcus pneumoniae [7], 2 µg/mL (≈ 2.11 µM); against Streptococcus pneumoniae [9], 2 µg/mL (≈ 2.11 µM); in the assay on Streptococcus pneumoniae [10] it was 0.125 µg/mL (≈ 0.132 µM); with Moraxella catarrhalis, 0.25 µg/mL (≈ 0.264 µM); against Streptococcus pneumoniae [11], 0.125 µg/mL (≈ 0.132 µM). Further, the MIC against Streptococcus pneumoniae [12] is 1 µg/mL (≈ 1.05 µM); in the assay on Streptococcus pneumoniae [13] it was 0.5 µg/mL (≈ 0.527 µM); against Haemophilus influenzae, under 0.06 µg/mL; in the assay on Streptococcus pneumoniae [14], 4 µg/mL (≈ 4.22 µM); in the assay on Streptococcus pneumoniae [15], 0.06 µg/mL (≈ 0.0633 µM); in the assay on Streptococcus pneumoniae [16], 0.25 µg/mL (≈ 0.264 µM). The compound also gave an MIC against Streptococcus pneumoniae [17] of 0.03 µg/mL (≈ 0.0316 µM). In addition, the result in the assay with Streptococcus pneumoniae [8] was Active.

Regarding `CC[C@H]1OC(=O)[C@H](C)[C@@H](O[C@H]2C[C@@](C)(OC)[C@@H](O)[C@H](C)O2)[C@H](C)[C@@H](O[C@@H]2O[C@H](C)C[C@H](N(C)C)[C@H]2O)[C@](C)(O)C[C@@H](C)C(=O)[C@H](C)[C@@H](O)[C@]1(C)O` [ERYTHROMYCIN], the MIC against Streptococcus pyogenes was 0.015 µg/mL (≈ 0.0204 µM); against Streptococcus pneumoniae [18], 0.25 µg/mL (≈ 0.341 µM); in the assay on Streptococcus pneumoniae [10], 8 µg/mL (≈ 10.9 µM); in the assay with Moraxella catarrhalis, 8 µg/mL (≈ 10.9 µM); against Streptococcus pneumoniae [11], 0.5 µg/mL (≈ 0.681 µM); in the assay on Haemophilus influenzae, over 16 µg/mL. For the same compound, the results for the MIC against Streptococcus pneumoniae [15] and against Streptococcus pneumoniae [17] were 0.25 µg/mL (≈ 0.341 µM) and 0.125 µg/mL (≈ 0.17 µM), respectively.

With `C=CCN(C)[C@H]1C[C@@H](C)O[C@@H](O[C@@H]2[C@@H](C)[C@H](OC(=O)Cc3ccccn3)[C@@H](C)C(=O)O[C@H](CC)[C@@]3(C)OC(=O)N(CCCCn4cnc(-c5ccc(N)nc5)c4)[C@@H]3[C@@H](C)C(=O)[C@H](C)C[C@@]2(C)OC)[C@@H]1O`, the MIC against Streptococcus pneumoniae [1] came out at 0.125 µg/mL (≈ 0.128 µM); in the assay with Streptococcus pneumoniae [2], 0.03 µg/mL (≈ 0.0308 µM); with Streptococcus pneumoniae [3], 0.03 µg/mL (≈ 0.0308 µM); against Streptococcus pneumoniae [4], 0.06 µg/mL (≈ 0.0616 µM); in the assay on Streptococcus pyogenes, 2 µg/mL (≈ 2.05 µM); with Streptococcus pneumoniae [5], 0.06 µg/mL (≈ 0.0616 µM). For the same compound, the MIC worked out at 0.25 µg/mL (≈ 0.257 µM) in the assay on Streptococcus pneumoniae [6]; 0.25 µg/mL (≈ 0.257 µM) in the assay on Streptococcus pneumoniae [7]; 0.25 µg/mL (≈ 0.257 µM) with Streptococcus pneumoniae [9]; 0.25 µg/mL (≈ 0.257 µM) in the assay with Streptococcus pneumoniae [10]; 0.125 µg/mL (≈ 0.128 µM) in the assay with Moraxella catarrhalis; 0.125 µg/mL (≈ 0.128 µM) in the assay with Streptococcus pneumoniae [11]. Also, the MIC turned out to be 0.06 µg/mL (≈ 0.0616 µM) in the assay on Streptococcus pneumoniae [12]; 0.03 µg/mL (≈ 0.0308 µM) in the assay with Streptococcus pneumoniae [13]; 0.5 µg/mL (≈ 0.513 µM) with Streptococcus pneumoniae [14]; 0.06 µg/mL (≈ 0.0616 µM) against Streptococcus pneumoniae [15]; 0.03 µg/mL (≈ 0.0308 µM) with Streptococcus pneumoniae [16]; 0.06 µg/mL (≈ 0.0616 µM) in the assay with Streptococcus pneumoniae [17]. Besides, the outcome in the assay with Streptococcus pneumoniae [8] was Active.

Consider `C=CCN(C)[C@H]1C[C@@H](C)O[C@@H](O[C@@H]2[C@@H](C)[C@H](OC(=O)Cc3ccccn3)[C@@H](C)C(=O)O[C@H](CC)[C@@]3(C)OC(=O)N(CCCCn4cnc5ncccc54)[C@@H]3[C@@H](C)C(=O)[C@H](C)C[C@@]2(C)OC)[C@@H]1O`, for which the MIC against Streptococcus pneumoniae [1] amounted to 0.5 µg/mL (≈ 0.536 µM); in the assay on Streptococcus pneumoniae [2], 0.06 µg/mL (≈ 0.0643 µM); in the assay with Streptococcus pneumoniae [3] it was 0.125 µg/mL (≈ 0.134 µM); against Streptococcus pneumoniae [4], 0.25 µg/mL (≈ 0.268 µM); in the assay on Streptococcus pyogenes, 0.06 µg/mL (≈ 0.0643 µM); in the assay with Streptococcus pneumoniae [5] it was 0.125 µg/mL (≈ 0.134 µM). Further, the MIC against Streptococcus pneumoniae [6] was determined as 0.5 µg/mL (≈ 0.536 µM); against Streptococcus pneumoniae [7] it was 0.5 µg/mL (≈ 0.536 µM); with Streptococcus pneumoniae [9], 0.5 µg/mL (≈ 0.536 µM); against Streptococcus pneumoniae [10], 0.5 µg/mL (≈ 0.536 µM); against Moraxella catarrhalis it was 0.25 µg/mL (≈ 0.268 µM); against Streptococcus pneumoniae [11] it was 0.5 µg/mL (≈ 0.536 µM). The MIC against Streptococcus pneumoniae [12] is 0.125 µg/mL (≈ 0.134 µM); against Streptococcus pneumoniae [13], 0.125 µg/mL (≈ 0.134 µM); with Haemophilus influenzae, under 0.06 µg/mL; against Streptococcus pneumoniae [14], 1 µg/mL (≈ 1.07 µM); with Streptococcus pneumoniae [15], 0.06 µg/mL (≈ 0.0643 µM); in the assay on Streptococcus pneumoniae [16], 0.06 µg/mL (≈ 0.0643 µM). The compound also showed an MIC against Streptococcus pneumoniae [17] of 0.06 µg/mL (≈ 0.0643 µM). Further, the result with Streptococcus pneumoniae [8] was Active.

For `C=CCN(C)[C@H]1C[C@@H](C)O[C@@H](O[C@@H]2[C@@H](C)[C@H](OC(=O)Cc3ccccn3)[C@@H](C)C(=O)O[C@H](CC)[C@@]3(C)OC(=O)N(CCCCn4cncc4-c4ccco4)[C@@H]3[C@@H](C)C(=O)[C@H](C)C[C@@]2(C)OC)[C@@H]1O`, the MIC against Streptococcus pneumoniae [1] worked out at 1 µg/mL (≈ 1.05 µM); against Streptococcus pneumoniae [2], 0.125 µg/mL (≈ 0.132 µM); against Streptococcus pneumoniae [3], 0.25 µg/mL (≈ 0.264 µM); with Streptococcus pneumoniae [4] it was 0.5 µg/mL (≈ 0.527 µM); against Streptococcus pyogenes it was 0.015 µg/mL (≈ 0.0158 µM); against Streptococcus pneumoniae [5], 0.25 µg/mL (≈ 0.264 µM). Moreover, the MIC in the assay with Streptococcus pneumoniae [6] was found to be 1 µg/mL (≈ 1.05 µM); against Streptococcus pneumoniae [7] it was 1 µg/mL (≈ 1.05 µM); with Streptococcus pneumoniae [9], 1 µg/mL (≈ 1.05 µM); in the assay on Streptococcus pneumoniae [10], 0.25 µg/mL (≈ 0.264 µM); with Moraxella catarrhalis, 0.125 µg/mL (≈ 0.132 µM); against Streptococcus pneumoniae [11] it was 0.06 µg/mL (≈ 0.0633 µM). Besides, the MIC was found to be 0.5 µg/mL (≈ 0.527 µM) against Streptococcus pneumoniae [12]; 0.25 µg/mL (≈ 0.264 µM) against Streptococcus pneumoniae [13]; 2 µg/mL (≈ 2.11 µM) against Streptococcus pneumoniae [14]; 0.008 µg/mL (≈ 0.00844 µM) in the assay on Streptococcus pneumoniae [15]; 0.125 µg/mL (≈ 0.132 µM) against Streptococcus pneumoniae [16]; 0.015 µg/mL (≈ 0.0158 µM) in the assay with Streptococcus pneumoniae [17]. Also, the outcome in the assay with Streptococcus pneumoniae [8] was Active.

(Values after ChEMBL document CHEMBL1933046, “Synthesis and antibacterial activity of a novel series of acylides active against community acquired respiratory pathogens” (2012).)
